# Results published in patent US7442791B2, “Aminoalkylamide substituted cyclohexyl derivatives” (Hoffmann-La Roche Inc., priority 2003, dated 2008).
# Read-outs that look alike come from different tables or passages of the source.
# Key:
# [1] = biological target: T1, Human Liver Microsomal 2,3-oxidosqualene-lanosterol Cyclase (OSC) (Homo sapiens, UniProt P48449); assay: Inhibition of human liver microsomal 2,3-oxidosqualene-lanosterol cyclase (OSC); assay type: biochemical; settings: read-out: percentage OSC inhibition against controls
# T1 construct: Liver microsomes from a healthy volunteer were prepared in sodium phosphate buffer (pH 7.4); from tissue; host or cells: human liver microsomes (healthy volunteer)
# T1 sequence (P48449 1-732): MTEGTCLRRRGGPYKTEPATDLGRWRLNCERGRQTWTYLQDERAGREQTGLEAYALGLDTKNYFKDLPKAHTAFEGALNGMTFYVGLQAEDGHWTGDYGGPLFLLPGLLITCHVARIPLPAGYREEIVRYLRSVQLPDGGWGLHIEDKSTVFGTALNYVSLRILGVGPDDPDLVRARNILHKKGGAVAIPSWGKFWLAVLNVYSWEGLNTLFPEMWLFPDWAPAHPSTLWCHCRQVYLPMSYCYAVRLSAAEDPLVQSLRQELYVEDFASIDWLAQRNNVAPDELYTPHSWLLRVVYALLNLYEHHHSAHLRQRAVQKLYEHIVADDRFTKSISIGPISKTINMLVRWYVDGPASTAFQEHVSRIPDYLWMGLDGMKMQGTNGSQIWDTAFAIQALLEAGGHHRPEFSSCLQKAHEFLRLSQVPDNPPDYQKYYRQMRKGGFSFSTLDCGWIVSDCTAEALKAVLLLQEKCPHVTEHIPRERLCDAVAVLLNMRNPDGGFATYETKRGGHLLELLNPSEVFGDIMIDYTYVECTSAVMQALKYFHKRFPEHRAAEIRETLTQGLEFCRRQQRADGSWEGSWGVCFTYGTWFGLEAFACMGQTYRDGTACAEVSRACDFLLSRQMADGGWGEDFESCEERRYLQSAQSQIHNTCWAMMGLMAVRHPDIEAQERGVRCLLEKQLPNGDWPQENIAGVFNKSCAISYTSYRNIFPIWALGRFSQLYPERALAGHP
# Description: Inhibition of Human Liver Microsomal 2,3-oxidosqualene-lanosterol Cyclase (OSC)
# Liver microsomes from a healthy volunteer were prepared in sodium phosphate buffer (pH 7.4). The OSC activity was measured in the same buffer, which also contained 1 mM EDTA and 1 mM dithiothreitol. The microsomes were diluted to 0.8 mg/ml protein in cold phosphate buffer. Dry [^14C]R,S-monooxidosqualene (MOS, 12.8 mCi/mmol) was diluted to 20 nCi/μl with ethanol and mixed with phosphate buffer-1% BSA (bovine serum albumin). A stock solution of 1 mM test substance in DMSO was diluted to the desired concentration with phosphate buffer-1% BSA. 40 μl of microsomes were mixed with 20 μl of the solution of the test substance and the reaction was subsequently started with 20 μl of the [^14C]R,S-MOS solution. The final conditions were 0.4 mg/ml of microsomal proteins and […] of [^14C]R,S-MOS in phosphate buffer, pH 7.4, containing 0.5% albumin, DMSO<0.1% and ethanol<2%, in a total volume of 80 μl.
# After 1 hour at 37° C. the reaction was stopped by the addition of 0.6 ml of 10% KOH-methanol, 0.7ml of water and 0.1 ml of hexane:ether (1:1, v/v) which contained 25 μg of non-radioactive MOS and 25 μg of lanosterol as carriers. After shaking, 1 ml of hexane:ether (1:1, v/v) was added to each test tube, these were again shaken and then centrifuged. The upper phase was transferred into a glass test tube, the lower phase was again extracted with hexane:ether and combined with the first extract. The entire extract was evaporated to dryness with nitrogen, the residue was suspended in 50 μl of hexane:ether and applied to a silica gel plate. Chromatographic separation was effected in hexane:ether (1:1, v/v) as the eluent. The Rf values for the MOS substrate and the lanosterol product were 0.91 and, respectively, 0.54. After drying, radioactive MOS and lanosterol were observed on the silica gel plate. The ratio of MOS to lanosterol was determined from the radioactive bands in order to determine the yield of the reaction and OSC inhibition.
# The test was carried out on the one hand with a constant test substance concentration of 100 nM and the percentage OSC inhibition against controls was calculated.
# In addition, the test was carried out with different test substance concentrations and subsequently the IC50 value was calculated, i.e. the concentration required to reduce the conversion of MOS into lanosterol to 50% of the control value.
# [2] = constant test substance concentration of 100 nM, human liver microsomes, [14C]R,S-MOS, 1 hour at 37° C.
structure (smiles),measurement,setting,value
"CN(C)CCN(C)C(=O)CCO[C@H]1CC[C@H](N(C)S(=O)(=O)c2ccc(C(F)(F)F)cc2)CC1 [Example 1.6, trans-N-(2-dimethylamino-ethyl)-N-methyl-3-{4-[methyl-(4-trifluoromethyl-benzenesulfonyl)-amino]-cyclohexyloxy}-propionamide]",inhibition at 0.1 µM,[1]; [2],61%
"CN(C)CCN(C)C(=O)[C@H]1CC[C@H](CN(C)C(=O)Oc2ccc(Cl)cc2)CC1 [Example 5.4, trans-{4-[(2-dimethylamino-ethyl)-methyl-carbamoyl]-cyclohexylmethyl}-methyl-carbamic acid 4-chloro-phenyl ester]",inhibition at 0.1 µM,[1],51%
"CCN(CCO)CCN(C)C(=O)[C@H]1CC[C@H](CCN(C)c2ncc(Br)cn2)CC1 [Example 15.4, trans-4-{2-[(5-bromo-pyrimidin-2-yl)-methyl-amino]-ethyl}-cyclohexanecarboxylic acid {2-[ethyl-(2-hydroxy-ethyl)-amino]-ethyl}-methyl-amide]",inhibition at 0.1 µM,[1]; [2],65%
"CN(C)CCN(C)C(=O)[C@H]1CC[C@H](N(C)S(=O)(=O)c2ccc(C(F)(F)F)cc2)CC1 [Example 4.4, trans-4-[methyl-(4-trifluoromethyl-benzenesulfonyl)-amino]-cyclohexanecarboxylic acid (2-dimethylamino-ethyl)-methyl-amide]",melting point,,83 °C
"CN(C)CCN(C)C(=O)CC[C@H]1CC[C@H](CN(C)S(=O)(=O)c2ccc(C(F)(F)F)cc2)CC1 [Example 22.6, trans-N-(2-dimethylamino-ethyl)-N-methyl-3-(4-{[methyl-(4-trifluoromethyl-benzenesulfonyl)-amino]-methyl}-cyclohexyl)-propionamide]",inhibition at 0.1 µM,[1]; [2],56%
